{"source": "patent US20010046979A1", "about": "“Acidic antimicrobial compositions for treating food and food contact surfaces and methods of use thereof” (priority 2000, published 2001)", "test_in_all_cases": "Antimicrobial effectiveness on inoculated broccoli, 5 minute soak", "type_in_all_cases": "cell-based", "key": {"[1]": {"test_system": "Staph aureus", "details": "5 g/L", "method": "(§1) Concentrated powdered compositions E and F are prepared and dissolved in deionized and hard water (10 gpg) at a level of 5 grams of composition per Liter of water to form a dilute aqueous treatment composition. The dilute aqueous treatment compositions are then tested on broccoli samples for antimicrobial effectiveness.\n(§2) A Broccoli sample is innoculated with a bacterial solution containing ≧10^8 cfu bacterium per ml. Application of 100 microliters of this solution to the surface results in approximately 10^6 to 10^7 cfu per broccoli piece. Equal amounts of small spots are deposited to facilitate drying. After 30 minutes dry time the sample is placed in 50 ml of the dilute aqueous treatment composition for a 5 minute soak. After the 5 minute soak the sample is transferred to 50 ml of a neutralizer before being stomached for 2 minutes and subsequently plated to enumerate the organisms surviving the treatments. Suprisingly the acid-anionic system maintained equal or better antimicrobial activity vs. 200 ppm hypochlorite bleach over the range from 0 to 10 gpg, as shown by the data in the following Tables."}, "[2]": {"test_system": "E-Coli", "details": "5 g/L", "method": "as §1, §2"}, "[3]": {"test_system": "Salmonella", "details": "0 gpg water", "method": "as §1, §2\n(§3) Composition E is further tested on Salmonella and Listeria on broccoli with similar results."}, "[4]": {"test_system": "Listeria", "details": "0 gpg water", "method": "as §1, §2, §3"}}}
{"smiles": "[Na+].[O-]Cl", "note": "[200 ppm NaOCl, NaOCl]", "values": [{"measurement": "Log Reduction (greater than water alone) in 5 minutes", "setting": "[1]; 0 gpg water", "value": 1.08, "unit": "log"}, {"measurement": "Log Reduction in 5 minutes", "setting": "[1]; 0 gpg water", "value": 1.5, "unit": "log"}, {"measurement": "Log Reduction (greater than water alone) in 5 minutes", "setting": "[1]; 10 gpg water", "value": 0.89, "unit": "log"}, {"measurement": "Log Reduction in 5 minutes", "setting": "[1]; 10 gpg water", "value": 1.3, "unit": "log"}, {"measurement": "Log Reduction (greater than water alone) in 5 minutes", "setting": "[2]; 0 gpg water", "value": 0.86, "unit": "log"}, {"measurement": "Log Reduction in 5 minutes", "setting": "[2]; 0 gpg water", "value": 1.2, "unit": "log"}, {"measurement": "Log Reduction (greater than water alone) in 5 minutes", "setting": "[2]; 10 gpg water", "value": 0.93, "unit": "log"}, {"measurement": "Log Reduction in 5 minutes", "setting": "[2]; 10 gpg water", "value": 1.3, "unit": "log"}, {"measurement": "Log Reduction (greater than water alone) in 5 minutes", "setting": "[3]", "value": 0.67, "unit": "log"}, {"measurement": "Log Reduction (greater than water alone) in 5 minutes", "setting": "[4]", "value": 0.77, "unit": "log"}]}
